US4340609A, “Amidinourea derivative veterinary compositions for suppression of parasitemia” (William H. Rorer, Inc., priority 1980, dated 1982)
Read-outs that look alike come from different tables or passages of the source.

Tests used:
[1] = tested on: plasmodium berghei; assay: suppression of parasitemia in mice infected with plasmodium berghei; type: in vivo; details: for ED50: Plasmodium berghei, sc; for ED50 / Mean % Parasitemia / Mean % Suppression / % died: mice
Experimental: Five representative amidinoureas were tested in mice infected with plasmodium berghei. The five compounds tested are the following:
Groups of 10 mice each were used in seven doses totaling 70 mice per compound. The protozoal infection was induced by intraperitoneal injection of 5,000,000 parasitized blood cells from a donor. The compound was administered subcutaneously in doses ranging from 0.15 to 10 mg. per kg., suspended on 0.5% methacel solution (doses expressed as base). The compound was repeatedly injected on the day of inoculation (day 1), day 2 and day 3. Blood smears were performed on days 4, 5, 6 and 10.
Untreated control but infected mice developed fulminating parasitemia of as high as 35% on day 10 and deaths occurred from day 12 to 14.

[2] = triazine form/metabolite, cited from earlier work; for usefulness in therapy: malaria
[3] = s.c., 1.0 mg/kg on days 1-3, 4th day
[4] = s.c., 1.0 mg/kg on days 1-3, 5th day
[5] = s.c., 1.0 mg/kg on days 1-3, 6th day
[6] = s.c., 1.0 mg/kg on days 1-3, 10th day
[7] = s.c., 2.0 mg/kg on days 1-3, 4th day
[8] = s.c., 2.0 mg/kg on days 1-3, 5th day
[9] = s.c., 2.0 mg/kg on days 1-3, 6th day
[10] = s.c., 2.0 mg/kg on days 1-3, 10th day
[11] = s.c., 10.0 mg/kg on days 1-3, 4th day
[12] = s.c., 10.0 mg/kg on days 1-3, 5th day
[13] = s.c., 10.0 mg/kg on days 1-3, 6th day
[14] = s.c., 10.0 mg/kg on days 1-3, 10th day
[15] = s.c., .15 mg/kg on days 1-3, 4th day
[16] = s.c., .15 mg/kg on days 1-3, 5th day
[17] = s.c., .15 mg/kg on days 1-3, 6th day
[18] = s.c., .15 mg/kg on days 1-3, 10th day
[19] = s.c., .20 mg/kg on days 1-3, 4th day
[20] = s.c., .20 mg/kg on days 1-3, 5th day
[21] = s.c., .20 mg/kg on days 1-3, 6th day
[22] = s.c., .20 mg/kg on days 1-3, 10th day
[23] = s.c., .30 mg/kg on days 1-3, 4th day
[24] = s.c., .30 mg/kg on days 1-3, 5th day
[25] = s.c., .30 mg/kg on days 1-3, 6th day
[26] = s.c., .30 mg/kg on days 1-3, 10th day
[27] = s.c., .50 mg/kg on days 1-3, 4th day
[28] = s.c., .50 mg/kg on days 1-3, 5th day
[29] = s.c., .50 mg/kg on days 1-3, 6th day
[30] = s.c., .50 mg/kg on days 1-3, 10th day

## CNC(=N)NC(=O)Nc1c(C)cc(Br)cc1Cl.Cl [Compound C, 1-(4-bromo-2-chloro-6-methylphenyl)-3-methylamidinourea hydrochloride]
[1]; 96 h, s.c., levels of parasitemia, 4th day, read-out: SED50 (Suppressant Effective Dose50)
  ED50: 1.12 mg/kg
[1]; 120 h, s.c., levels of parasitemia, 5th day, read-out: SED50 (Suppressant Effective Dose50)
  ED50: 1.12 mg/kg
[1]; 144 h, s.c., levels of parasitemia, 6th day, read-out: SED50 (Suppressant Effective Dose50)
  ED50: 1.39 mg/kg
[1]; 240 h, s.c., levels of parasitemia, 10th day, read-out: SED50 (Suppressant Effective Dose50)
  ED50: 3.99 mg/kg
[1]; day 4 to day 10, read-out: HIGHEST SED50
  ED50: 3.99 mg/kg
[1]; day 4 to day 10, read-out: LOWEST SED50
  ED50: 1.12 mg/kg
[1]; factor of change, day 4 to day 10, duration of action
  FACTOR (HIGHEST SED50 ÷ LOWEST SED50): 3.56
[1]; [3]
  Mean % Parasitemia: 2.75%
  Mean % Suppression: 47.6%
[1]; [4]
  Mean % Parasitemia: 3.60%
  Mean % Suppression: 50.7%
[1]; [5]
  Mean % Parasitemia: 5.20%
  Mean % Suppression: 44.1%
[1]; [6]
  Mean % Parasitemia: 28.30%
  Mean % Suppression: 20.3%
[1]; s.c., 1.0 mg/kg on days 1-3, 12th day
  % died: 20%
[1]; s.c., 1.0 mg/kg on days 1-3, 13th day
  % died: 60%
[1]; s.c., 1.0 mg/kg on days 1-3, 14th day
  % died: 60%
[1]; [7]
  Mean % Parasitemia: 1.50%
  Mean % Suppression: 71.4%
[1]; [8]
  Mean % Parasitemia: 1.90%
  Mean % Suppression: 74.0%
[1]; [9]
  Mean % Parasitemia: 4.10%
  Mean % Suppression: 56.0%
[1]; [10]
  Mean % Parasitemia: 24.28%
  Mean % Suppression: 31.6%
[1]; s.c., 2.0 mg/kg on days 1-3, 12th day
  % died: 20%
[1]; s.c., 2.0 mg/kg on days 1-3, 13th day
  % died: 20%
[1]; s.c., 2.0 mg/kg on days 1-3, 14th day
  % died: 40%
[1]; [11]
  Mean % Parasitemia: 0%
  Mean % Suppression: 100.0%
[1]; [12]
  Mean % Parasitemia: 0%
  Mean % Suppression: 100.0%
[1]; [13]
  Mean % Parasitemia: 0%
  Mean % Suppression: 100.0%
[1]; [14]
  Mean % Parasitemia: 0%
  Mean % Suppression: 100.0%
[1]; s.c., 10.0 mg/kg on days 1-3, 12th day
  % died: 0%
[1]; s.c., 10.0 mg/kg on days 1-3, 13th day
  % died: 0%
[1]; s.c., 10.0 mg/kg on days 1-3, 14th day
  % died: 0%
[1]; [15]
  Mean % Parasitemia: 5.00%
  Mean % Suppression: 4.8%
[1]; [16]
  Mean % Parasitemia: 7.20%
  Mean % Suppression: 1.4%
[1]; [17]
  Mean % Parasitemia: 9.20%
  Mean % Suppression: 1.1%
[1]; [18]
  Mean % Parasitemia: 35.40%
  Mean % Suppression: 0.3%
[1]; s.c., .15 mg/kg on days 1-3, 12th day
  % died: 20%
[1]; s.c., .15 mg/kg on days 1-3, 13th day
  % died: 40%
[1]; s.c., .15 mg/kg on days 1-3, 14th day
  % died: 80%
[1]; [19]
  Mean % Parasitemia: 5.00%
  Mean % Suppression: 4.8%
[1]; [20]
  Mean % Parasitemia: 6.25%
  Mean % Suppression: 14.4%
[1]; [21]
  Mean % Parasitemia: 9.10%
  Mean % Suppression: 2.2%
[1]; [22]
  Mean % Parasitemia: 35.10%
  Mean % Suppression: 1.1%
[1]; s.c., .20 mg/kg on days 1-3, 12th day
  % died: 40%
[1]; s.c., .20 mg/kg on days 1-3, 13th day
  % died: 60%
[1]; s.c., .20 mg/kg on days 1-3, 14th day
  % died: 60%
[1]; [23]
  Mean % Parasitemia: 4.75%
  Mean % Suppression: 9.5%
[1]; [24]
  Mean % Parasitemia: 6.00%
  Mean % Suppression: 17.8%
[1]; [25]
  Mean % Parasitemia: 8.30%
  Mean % Suppression: 10.8%
[1]; [26]
  Mean % Parasitemia: 33.40%
  Mean % Suppression: 5.9%
[1]; s.c., .30 mg/kg on days 1-3, 12th day
  % died: 20%
[1]; s.c., .30 mg/kg on days 1-3, 13th day
  % died: 40%
[1]; s.c., .30 mg/kg on days 1-3, 14th day
  % died: 80%
[1]; [27]
  Mean % Parasitemia: 4.75%
  Mean % Suppression: 9.5%
[1]; [28]
  Mean % Parasitemia: 5.20%
  Mean % Suppression: 28.8%
[1]; [29]
  Mean % Parasitemia: 7.00%
  Mean % Suppression: 24.7%
[1]; [30]
  Mean % Parasitemia: 31.40%
  Mean % Suppression: 11.5%
[1]; s.c., .50 mg/kg on days 1-3, 12th day
  % died: 0%
[1]; s.c., .50 mg/kg on days 1-3, 13th day
  % died: 20%
[1]; s.c., .50 mg/kg on days 1-3, 14th day
  % died: 80%

## CC1(C)N=C(N)N=C(N)N1c1ccc(Cl)cc1 [triazine metabolite of chloroquanide]
[2]
  excretion from the body: rapid excretion from the body
  usefulness in therapy: little or no usefulness in the therapy of humans and monkeys

## [H]/N=C(\N/C(=N/[H])Nc1ccc(Cl)cc1)NC(C)C [chloroguanide]
[2]
  excretion from the body: rapidly excreted from the body when in its triazine form
  usefulness in therapy: little or no usefulness
